Assay results: ChEMBL document CHEMBL1201862, “PubChem BioAssay data set” (2004)
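A five-concentration, 48-hour dose response in 96-well plates underlies each endpoint, interpolated linearly between surrounding concentrations. GI50 = concentration required for 50% inhibition of growth.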 The source made the active and inactive calls. Rule as the data show it: active = GI50 up to about 1.1 µM and inactive = higher. Where a SMILES comes first, the peptide text is derived from it. [ ]: non-standard residue; d: D form. The star is where a group is joined. NMeAc5c = CNC1(C(=O)O)CCCC1; Boc = CC(C)(C)OC(=O)*; OBn = c1ccc(CO*)cc1

Columns and labels:
Assay in all cases: DTP human tumour cell line panel, 48 h
HCC 2998 = tested on: HCC 2998
UO-31 = tested on: UO-31
PC-3 = tested on: PC-3
786-0 = tested on: 786-0
Hs-578T = tested on: Hs-578T
OVCAR-4 = tested on: OVCAR-4
ACHN = tested on: ACHN
UACC-62 = tested on: UACC-62
HOP-62 = tested on: HOP-62
SK-MEL-5 = tested on: SK-MEL-5
COLO 205 = tested on: COLO 205
SNB-19 = tested on: SNB-19
CAKI-1 = tested on: CAKI-1
EKVX = tested on: EKVX
SF-295 = tested on: SF-295
A498 = tested on: A498
RXF 393 = tested on: RXF 393
NCI-H522 = tested on: NCI-H522

Measured: GI50

Oc1ccc(/C=C/c2cccc(/C=C/c3ccc(O)c(O)c3)n2)cc1O
inactive: HCC 2998 16.5 µM | UO-31 3.85 µM | PC-3 17.5 µM | 786-0 10.7 µM | Hs-578T 54.5 µM | OVCAR-4 6.04 µM | ACHN 5.14 µM | UACC-62 6.12 µM | HOP-62 22.2 µM | SK-MEL-5 4.72 µM | COLO 205 14.2 µM | SNB-19 6.04 µM | CAKI-1 13.8 µM | EKVX 11.7 µM | SF-295 18.6 µM | A498 12.9 µM

O=C(CC(C(=O)c1cccs1)c1ccccc1)c1ccccc1O (centres undefined)
inactive: UO-31 18.5 µM | PC-3 14 µM | 786-0 9.91 µM | RXF 393 5.19 µM | Hs-578T 5.81 µM | OVCAR-4 16.4 µM | ACHN 11.3 µM | UACC-62 14.7 µM | HOP-62 18.2 µM | SK-MEL-5 9.48 µM | NCI-H522 3.21 µM | COLO 205 > 50.7 µM | SNB-19 23.9 µM | CAKI-1 8.95 µM | EKVX 12.7 µM | SF-295 8.67 µM

CN(C(=O)C(Cc1ccccc1)NC(=O)OC(C)(C)C)C1(C(=O)NC(Cc2ccccc2)C(=O)OCc2ccccc2)CCCC1 (stereo not drawn) (Boc-Phe-[NMeAc5c]-Phe-OBn; configuration not given here)
inactive: HCC 2998 77.4 µM | UO-31 25.9 µM | PC-3 28.4 µM | 786-0 40.9 µM | RXF 393 44.7 µM | Hs-578T 41.3 µM | OVCAR-4 > 100 µM | ACHN 24.9 µM | UACC-62 24.5 µM | HOP-62 38.5 µM | SK-MEL-5 59.6 µM | COLO 205 22.3 µM | SNB-19 53.5 µM | EKVX 59.6 µM | SF-295 42.6 µM

NCCC(=O)NC(Cc1c[nH]cn1)C(=O)O (centres undefined)
inactive: HCC 2998 > 100 µM | UO-31 > 100 µM | PC-3 > 100 µM | 786-0 > 100 µM | Hs-578T > 100 µM | OVCAR-4 > 100 µM | ACHN > 100 µM | HOP-62 > 100 µM | SK-MEL-5 > 100 µM | NCI-H522 > 100 µM | COLO 205 > 100 µM | SNB-19 > 100 µM | CAKI-1 > 100 µM | EKVX > 100 µM | SF-295 > 100 µM

Oc1ccc(/C=C/c2cc(O)cc(O)c2)cc1 [RESVERATROL]
inactive: HCC 2998 62.4 µM | UO-31 35.7 µM | PC-3 42.4 µM | RXF 393 40.9 µM | OVCAR-4 > 100 µM | ACHN 27 µM | UACC-62 41.2 µM | HOP-62 92 µM | SNB-19 > 100 µM | CAKI-1 42.2 µM | EKVX 81.5 µM | SF-295 44 µM | A498 24.3 µM

N#CC1=C2SCCN2C(=O)C(C#N)C12CCCCC2 (centres undefined)
inactive: HCC 2998 > 100 µM | UO-31 > 100 µM | PC-3 > 100 µM | 786-0 > 100 µM | RXF 393 59.4 µM | OVCAR-4 > 100 µM | ACHN > 100 µM | UACC-62 > 100 µM | HOP-62 > 100 µM | SK-MEL-5 > 100 µM | NCI-H522 > 100 µM | COLO 205 > 100 µM | SNB-19 > 100 µM | CAKI-1 > 100 µM | EKVX > 100 µM | SF-295 > 100 µM | A498 > 100 µM

O=P(Oc1ccc(Cl)cc1)(Oc1ccc(Cl)cc1)N1CC1
inactive: HCC 2998 > 10 µM | UO-31 > 10 µM | PC-3 > 10 µM | 786-0 > 10 µM | Hs-578T > 10 µM | OVCAR-4 > 10 µM | ACHN > 10 µM | UACC-62 > 10 µM | HOP-62 > 10 µM | SK-MEL-5 > 10 µM | COLO 205 > 10 µM | SNB-19 > 10 µM | EKVX > 10 µM | SF-295 > 10 µM | A498 > 10 µM

CC1CN=C(N(Cc2ccc(F)cc2)C(=O)Nc2ccc(Cl)cc2)S1 (centres undefined)
inactive: HCC 2998 23.2 µM | UO-31 35.2 µM | PC-3 23 µM | 786-0 20.5 µM | Hs-578T 51.3 µM | OVCAR-4 13.3 µM | ACHN 6.68 µM | HOP-62 93.3 µM | SK-MEL-5 13.7 µM | COLO 205 30.3 µM | SNB-19 95.1 µM | CAKI-1 5.32 µM | EKVX 16.2 µM | SF-295 27.7 µM | A498 18.9 µM

COc1cc(C2(O)c3ccccc3C3=NCCN32)cc(OC)c1OC (centres undefined)
inactive: HCC 2998 > 100 µM | UO-31 > 100 µM | PC-3 > 100 µM | 786-0 > 100 µM | Hs-578T > 100 µM | OVCAR-4 > 100 µM | ACHN > 100 µM | UACC-62 > 100 µM | HOP-62 > 100 µM | SK-MEL-5 > 100 µM | COLO 205 > 100 µM | SNB-19 79.4 µM | CAKI-1 > 100 µM | SF-295 > 100 µM | A498 > 100 µM

COc1ccc(Cc2nc3cc([N+](=O)[O-])ccc3n2C[C@@H]2CCCN3CCCCC23)cc1 (some centres undefined)
inactive: HCC 2998 12.6 µM | UO-31 8.3 µM | PC-3 27.1 µM | 786-0 18.6 µM | RXF 393 15.4 µM | OVCAR-4 18.7 µM | ACHN 33.2 µM | UACC-62 17.3 µM | HOP-62 19.3 µM | SK-MEL-5 14.8 µM | COLO 205 13.7 µM | SNB-19 19.8 µM | CAKI-1 19.3 µM | EKVX 31 µM | SF-295 18 µM | A498 16.6 µM

C=CC1(c2ccc(Br)cc2)OCCCO1
inactive: HCC 2998 > 100 µM | UO-31 > 100 µM | PC-3 > 100 µM | 786-0 > 100 µM | RXF 393 > 100 µM | Hs-578T > 100 µM | OVCAR-4 > 100 µM | ACHN > 100 µM | UACC-62 > 100 µM | HOP-62 > 100 µM | SK-MEL-5 > 100 µM | NCI-H522 > 100 µM | COLO 205 > 100 µM | SNB-19 > 100 µM | EKVX > 100 µM | SF-295 > 100 µM

COC(=O)C(/C(=N\O)C(=O)Nc1cccc(Cl)c1C)c1cnc2ccccc2n1 (centres undefined)
inactive: HCC 2998 > 100 µM | UO-31 > 100 µM | PC-3 > 100 µM | 786-0 > 100 µM | RXF 393 92.9 µM | OVCAR-4 > 100 µM | ACHN > 100 µM | UACC-62 > 100 µM | HOP-62 > 100 µM | SK-MEL-5 > 100 µM | NCI-H522 > 100 µM | COLO 205 > 100 µM | SNB-19 > 100 µM | CAKI-1 > 100 µM | EKVX > 100 µM | SF-295 > 100 µM | A498 > 100 µM

COC(CNC(=O)C(C)NC(=O)C(C)NC(=O)c1ccccc1)OC (centres undefined)
inactive: PC-3 > 100 µM | 786-0 > 100 µM | RXF 393 > 100 µM | Hs-578T > 100 µM | OVCAR-4 > 100 µM | ACHN > 100 µM | UACC-62 > 100 µM | SK-MEL-5 > 100 µM | NCI-H522 > 100 µM | COLO 205 > 100 µM | CAKI-1 > 100 µM | EKVX > 100 µM | SF-295 > 100 µM
